Experimental data as given in patent US20230113037A1 (Bayer Aktiengesellschaft, priority 2019, published 2023).
Read-outs that look alike come from different tables or passages of the source.

Key:
[1] = target: T1, AHR (Mus musculus, UniProt P30561); assay: In vitro assay 3: antagonism in mouse cell line (AHR transactivation, firefly luciferase reporter, kynurenic acid prestimulated); assay type: cell-based
T1 sequence (P30561 1-848 P471L/N533S/M589L): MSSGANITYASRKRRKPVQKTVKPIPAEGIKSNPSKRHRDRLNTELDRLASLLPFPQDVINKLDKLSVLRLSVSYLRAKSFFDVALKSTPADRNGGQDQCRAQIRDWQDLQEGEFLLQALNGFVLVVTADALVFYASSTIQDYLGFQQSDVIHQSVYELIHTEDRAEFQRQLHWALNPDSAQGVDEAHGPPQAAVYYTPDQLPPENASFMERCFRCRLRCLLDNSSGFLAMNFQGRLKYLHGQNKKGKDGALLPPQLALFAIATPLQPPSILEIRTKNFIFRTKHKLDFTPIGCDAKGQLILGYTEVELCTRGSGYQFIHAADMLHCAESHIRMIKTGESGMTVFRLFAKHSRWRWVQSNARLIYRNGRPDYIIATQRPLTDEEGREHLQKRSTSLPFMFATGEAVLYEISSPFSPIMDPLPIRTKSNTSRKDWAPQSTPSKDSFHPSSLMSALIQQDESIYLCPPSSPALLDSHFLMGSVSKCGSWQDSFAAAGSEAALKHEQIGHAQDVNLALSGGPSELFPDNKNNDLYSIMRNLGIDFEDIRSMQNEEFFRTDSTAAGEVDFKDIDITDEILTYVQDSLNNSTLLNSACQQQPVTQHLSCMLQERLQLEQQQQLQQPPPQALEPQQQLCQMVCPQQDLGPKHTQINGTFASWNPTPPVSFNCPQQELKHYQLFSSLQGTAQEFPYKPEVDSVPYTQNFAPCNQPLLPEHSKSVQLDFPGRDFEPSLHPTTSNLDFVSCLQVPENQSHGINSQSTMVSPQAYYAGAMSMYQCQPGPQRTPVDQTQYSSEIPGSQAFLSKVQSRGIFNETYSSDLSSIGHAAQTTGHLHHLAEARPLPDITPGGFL
Method in brief: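 Mouse cells stably carrying a DRE-driven, AHR-inducible firefly luciferase reporter were prestimulated with the endogenous agonist kynurenic acid before compound addition. Luciferase activity was measured by luminescence and normalized to positive and negative controls, with cells lacking kynurenic acid serving as full-inhibition control. Repeat tests are reported as mean or median.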

[2] = target: T2, AHR (Homo sapiens, UniProt P35869); assay: In vitro assay 1: antagonism in human cell line (AHR transactivation, firefly luciferase reporter, kynurenic acid prestimulated); assay type: cell-based; settings: AHR Antagonism Human IC50 [M]
T2 construct: U87 MG glioblastoma cells (ATCC #HTB-14) endogenously expressing AHR; endogenous in cells; host or cells: U87 MG glioblastoma cells (ATCC #HTB-14)
T2 sequence (P35869 11-848): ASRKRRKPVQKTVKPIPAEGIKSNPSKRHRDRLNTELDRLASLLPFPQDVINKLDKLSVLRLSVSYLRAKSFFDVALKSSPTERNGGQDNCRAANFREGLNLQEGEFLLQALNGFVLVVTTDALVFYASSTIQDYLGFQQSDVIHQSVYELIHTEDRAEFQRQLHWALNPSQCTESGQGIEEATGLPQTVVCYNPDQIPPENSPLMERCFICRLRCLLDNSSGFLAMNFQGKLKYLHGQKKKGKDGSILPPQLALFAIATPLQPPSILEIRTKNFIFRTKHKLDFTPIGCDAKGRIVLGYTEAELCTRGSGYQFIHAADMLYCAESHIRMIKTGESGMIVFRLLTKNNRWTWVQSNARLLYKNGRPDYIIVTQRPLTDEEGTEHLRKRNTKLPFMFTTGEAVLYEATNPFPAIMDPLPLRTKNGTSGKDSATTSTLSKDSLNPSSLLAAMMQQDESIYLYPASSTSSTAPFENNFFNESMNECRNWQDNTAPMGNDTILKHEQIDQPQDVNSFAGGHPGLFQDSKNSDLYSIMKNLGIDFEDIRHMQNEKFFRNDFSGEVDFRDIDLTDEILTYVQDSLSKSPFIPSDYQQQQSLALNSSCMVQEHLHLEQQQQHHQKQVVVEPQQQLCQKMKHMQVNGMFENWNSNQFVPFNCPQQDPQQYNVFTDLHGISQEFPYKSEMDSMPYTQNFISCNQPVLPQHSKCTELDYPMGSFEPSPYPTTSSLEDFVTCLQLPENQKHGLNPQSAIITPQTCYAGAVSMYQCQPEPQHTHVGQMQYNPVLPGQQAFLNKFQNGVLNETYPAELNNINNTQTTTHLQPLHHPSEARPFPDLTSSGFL
Method in brief: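 U87 MG + DRE-firefly/constitutive-Renilla stable reporters; kynurenic acid prestim; dual-luc read; Renilla = tox; normalized vs pos/neg controls (pos: 150 μM KYNA + 5 μM staurosporine).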

[3] = mouse Hepa 1c1c7 cells, 200 μM kynurenic acid, 20 hours, read-out: AHR Antagonism Mouse IC50
[4] = read-out: AHR Antagonism Mouse IC50, mouse Hepa 1c1c7 cells, 200 μM kynurenic acid, 20 hours
[5] = Hepa 1c1c7 cells, 200 μM kynurenic acid, 20 hours, firefly luciferase reporter, read-out: AHR Antagonism Mouse IC50

IC50 [1, 3]	IC50 [2]	IC50 [1, 5]	IC50 ([2]; firefly luciferase reporter)	SMILES	IC50 [1, 4]
50.6 nM	4.25e-08 M	–	–	O=C1NCCCC[C@H]1Nc1nc2ccccc2c2nc(-c3cnccc3C(F)(F)F)nn12 [Example 490, (3R)-3-({2-[4-(trifluoromethyl)pyridin-3-yl][1,2,4]triazolo[1,5-c]quinazolin-5-yl}amino)azepan-2-one]	–
4.65 nM	3.37e-07 M	–	–	Cc1cccc(C)c1-c1nc2c3ccccc3nc(N[C@@H]3CCCCNC3=O)n2n1 [Example 623, (3R)-3-{[2-(2,6-dimethylphenyl)[1,2,4]triazolo[1,5-c]quinazolin-5-yl]amino}azepan-2-one]	–
111 nM	5.32e-08 M	–	–	COc1ccc(-c2nc3c4cccc(Br)c4nc(N[C@@H]4CCCNC4=O)n3n2)cc1 [Example 223, (3R)-3-{[7-bromo-2-(4-methoxyphenyl)[1,2,4]triazolo[1,5-c]quinazolin-5-yl]amino}piperidin-2-one]	–
9.59 nM	3.05e-08 M	–	–	O=C1NCC[C@H]1Nc1nc2ccccc2c2nc(-c3ccc(Cl)cc3OC(F)(F)F)nn12 [Example 520, (3R)-3-({2-[4-chloro-2-(trifluoromethoxy)phenyl][1,2,4]triazolo[1,5-c]quinazolin-5-yl}amino)pyrrolidin-2-one]	–
10.6 nM	2.47e-09 M	–	–	COc1ccc(-c2nc3c4cccc(C#N)c4nc(N[C@@H]4CCCCNC4=O)n3n2)cc1 [Example 721, 2-(4-methoxyphenyl)-5-{[(3R)-2-oxoazepan-3-yl]amino}[1,2,4]triazolo[1,5-c]quinazoline-7-carbonitrile]	–
36.9 nM	> 2e-05 M	–	–	O=C1NCCCC[C@@H]1Nc1nc2ccccc2c2nc(-c3cc(F)ccc3OC(F)(F)F)nn12 [Example 493, (3S)-3-({2-[5-fluoro-2-(trifluoromethoxy)phenyl][1,2,4]triazolo[1,5-c]quinazolin-5-yl}amino)azepan-2-one]	–
13.2 nM	7.03e-08 M	–	–	CCCNC(=O)[C@@H](C)Nc1nc2ccccc2c2nc(-c3cc(F)ccc3OC(F)(F)F)nn12 [Example 495, N^2-{2-[5-fluoro-2-(trifluoromethoxy)phenyl][1,2,4]triazolo[1,5-c]quinazolin-5-yl}-N-propyl-D-alaninamide]	–
–	–	11 nM	2.5e-08 M	CCCCNC(=O)[C@@H](CC)Nc1nc2c(Br)cccc2c2nc(-c3ccc(Cl)cc3OC(F)(F)F)nn12 [Example 814, (2R)-2-({7-bromo-2-[4-chloro-2-(trifluoromethoxy)phenyl][1,2,4]triazolo[1,5-c]quinazolin-5-yl}amino)-N-butylbutanamide]	–
1.11 nM	4.09e-09 M	–	–	O=C1NCCCC[C@H]1Nc1nc2ccccc2c2nc(-c3cccc(Cl)c3Cl)nn12 [Example 196, (3R)-3-{[2-(2,3-dichlorophenyl)[1,2,4]triazolo[1,5-c]quinazolin-5-yl]amino}azepan-2-one]	–
50.5 nM	9.72e-08 M	–	–	CC[C@@H](Nc1nc2ccccc2c2nc(-c3cnccc3C(F)(F)F)nn12)C(N)=O [Example 491, (2R)-2-({2-[4-(trifluoromethyl)pyridin-3-yl][1,2,4]triazolo[1,5-c]quinazolin-5-yl}amino)butanamide]	–
37.4 nM	7.76e-08 M	–	–	Cc1sccc1-c1nc2c3ccccc3nc(N[C@@H]3CCCNC3=O)n2n1 [Example 348, (3R)-3-{[2-(2-methylthiophen-3-yl)[1,2,4]triazolo[1,5-c]quinazolin-5-yl]amino}piperidin-2-one]	–
46.1 nM	3.31e-08 M	–	–	COc1ccc(-c2nc3c4ccccc4nc(N[C@H](C)C(=O)NC(C)C)n3n2)cc1 [Example 391, N^2-[2-(4-Methoxyphenyl)[1,2,4]triazolo[1,5-c]quinazolin-5-yl]-N-propan-2-yl-D-alaninamide]	–
29.4 nM	8.68e-09 M	–	–	COc1ccc(-c2nc3c4cccc(Br)c4nc(N[C@@H]4CCNC4=O)n3n2)cc1 [Example 218, (3R)-3-{[7-bromo-2-(4-methoxyphenyl)[1,2,4]triazolo[1,5-c]quinazolin-5-yl]amino}pyrrolidin-2-one]	–
–	–	31.9 nM	3.07e-08 M	COc1ccc(-c2nc3c4cccc(Br)c4nc(N[C@H](C)C(=O)N4CC5(CN(C)C5)C4)n3n2)cc1 [Example 918, (2R)-2-{[7-bromo-2-(4-methoxyphenyl)[1,2,4]triazolo[1,5-c]quinazolin-5-yl]amino}-1-(6-methyl-2,6-diazaspiro[3.3]heptan-2-yl)propan-1-one]	–
2400 nM	9.46e-07 M	–	–	COc1ccc(-c2nc3c4ccc(C(F)(F)F)cc4nc(N[C@@H]4CCCCNC4=O)n3n2)cc1 [Example 548, (3R)-3-{[2-(4-methoxyphenyl)-8-(trifluoromethyl)[1,2,4]triazolo[1,5-c]quinazolin-5-yl]amino}azepan-2-one]	–
85 nM	6.33e-08 M	–	–	Cc1cc(-c2nc3c4ccccc4nc(N[C@@H]4CCCCNC4=O)n3n2)n[nH]1 [Example 64, (3R)-3-{[2-(5-methyl-1H-pyrazol-3-yl)[1,2,4]triazolo[1,5-c]quinazolin-5-yl]amino}azepan-2-one]	–
3140 nM	4.08e-06 M	–	–	CN1CCC(n2cc(-c3nc4c5ccccc5nc(N[C@@H]5CCCCNC5=O)n4n3)cn2)CC1 [Example 596, (3R)-3-({2-[1-(1-methylpiperidin-4-yl)-1H-pyrazol-4-yl][1,2,4]triazolo[1,5-c]quinazolin-5-yl}amino)azepan-2-one]	–
–	–	247 nM	6.71e-08 M	CC(C)S(=O)(=O)c1cccc2c1nc(N[C@@H]1CCCCNC1=O)n1nc(-c3cnn(C)c3)nc21 [Example 845, (3R)-3-{[2-(1-methyl-1H-pyrazol-4-yl)-7-(propane-2-sulfonyl)[1,2,4]triazolo[1,5-c]quinazolin-5-yl]amino}azepan-2-one]	–
239 nM	9.56e-06 M	–	–	O=C1NCCNC[C@H]1Nc1nc2ccccc2c2nc(-c3cc(F)ccc3OC(F)(F)F)nn12 [Example 719, (6R)-6-({2-[5-fluoro-2-(trifluoromethoxy)phenyl][1,2,4]triazolo[1,5-c]quinazolin-5-yl}amino)-1,4-diazepan-5-one]	–
78.2 nM	4.05e-08 M	–	–	Cc1cc(-c2nc3c4ccccc4nc(N[C@@H]4CCCNC4=O)n3n2)cs1 [Example 354, (3R)-3-{[2-(5-methylthiophen-3-yl)[1,2,4]triazolo[1,5-c]quinazolin-5-yl]amino}piperidin-2-one]	–

SMILES	IC50 [1, 3]	IC50 [2]	IC50 [1, 5]	IC50 ([2]; firefly luciferase reporter)	IC50 [1, 4]
CCCCC(Nc1nc2ccccc2c2nc(-c3cccc(OC(F)(F)F)c3)nn12)C(N)=O (single isomer, unassigned) [Example 324, N^2-{2-[3-(trifluoromethoxy)phenyl][1,2,4]triazolo[1,5-c]quinazolin-5-yl}-norleucinamide]	–	2.02e-08 M	–	–	16.4 nM
N#Cc1cccc2c1nc(N[C@@H]1CCCCNC1=O)n1nc(-c3cn[nH]c3)nc21 [Example 765, 5-{[(3R)-2-oxoazepan-3-yl]amino}-2-(1H-pyrazol-4-yl)[1,2,4]triazolo[1,5-c]quinazoline-7-carbonitrile]	–	7.79e-07 M	–	–	5850 nM
